# Tests used:
# [1] = Subfilm migration in the wet state (cathodic delamination) along the artificial damage, DIN 53 167, after the salt spray test; settings: after salt spray 168 hours, coat thickness 50 to 55 μm, lesser = more effective
# Source text: (§1) The coating formulations are applied to steel panels (19×10.5 cm) of the Bonder type (cold-rolled degreased steel; manufactured by Chemetall, Frankfurt am Main/Germany) in a coat thickness which after drying amounts to 50-55 μm. Drying conditions: 10 days at room temperature.
# (§2) Prior to the beginning of weathering, the “coating films” undergo defined damage in the form of a parallel cut (i.e. parallel to the longest panel edge) using a Bonder cross-cut instrument (Mod. 205; manufactured and sold by Lau, 5870 Hemer/Germany). The panel edges are protected by applying an edge protector (Icosit® 255; manufactured by Inertol AG, Winterthur/Switzerland).
# (§3) As additional assessment criteria, the “subfilm migration in the wet state” (cathodic delamination) along the artificial damage side is determined, after the end of the salt spray test, in accordance with DIN 53 167. […] After the end of the humidity test, the wet adhesion of the coating formulation is determined in accordance with DIN 53 151 by making a crosshatch cut followed by the tape tearoff test. According to DIN 53 151 (scale from Gt 0 to Gt 5) a crosshatch value of Gt 0 corresponds to completely intact adhesion of the coating film, whereas Gt 5 corresponds to inadequate adhesion.
# [2] = Wet adhesion of the coating formulation, DIN 53 151 crosshatch cut and tape tearoff test, after the humidity test; settings: after humidity test 330 hours, scale Gt 0 (completely intact adhesion) to Gt 5 (inadequate adhesion)
# Protocol: as §1, §3
# [3] = Salt spray test DIN 50 021 SS, 168 hours, of acrylic dispersion coating (Maincote HG-54) with corrosion inhibitor; corrosion protection factor CPF; settings: salt spray 168 hours, coat thickness 50 to 55 μm; for CPF film / CPF metal: maximum 6 points, greater = better; for CPF: sum of film and metal, maximum 12 points
# Protocol: (§4) In order to prepare the coating formulation (acrylic dispersion based on Maincote HG-54), components 1 to 8 (formulation without amine salt) and components 1 to 9 (formulation comprising an amine salt) are employed in the sequence stated (see Table 1).
# (§5) Components 1 to 8 or 1 to 9 are dispersed using a high-speed stirrer at 3000 revolutions/minute to a degree of ground fineness or ground particulate nature of <15 μm. The outcome of dispersing the pigment paste thus obtained is assessed by determining the grindometer value (ISO 1524).The amount of the novel salts employed is based on the overall solids content of the formulation without salt (overall solids content 47%). Accordingly, an addition of, say, 1.0% of amine salt to 100 g of dispersion denotes, for example, an amount of 0.47 g. To complete the coating formulation, components 10 to 16 of Table 1 are added at a reduced stirring speed (1000 revolutions/minute) in the stated sequence. Subsequently, the pH of the formulation is checked and, if appropriate, is adjusted prior to application to a value of from 8 to 8.5 using ammonia solution (25% strength).
# as §1, §2
# (§6) The samples are subsequently subjected to accelerated weathering in a salt spray test in accordance with DIN 50 021 SS for 168 hours (Table 2) or to a humidity test in accordance with ASTM D 4585-87 for 330 hours (Table 3). The assessment of the results is based on the relevant DIN standards in accordance with an evaluation key, by the indication of a corrosion protection value CPF (Corrosion Protection Factor). The CPF is an additive term composed of an assessment of the coating (film) and an assessment of visible underfilm corrosion and appearance of the metal surface, and has a maximum of 12 points. The individual maximum values are 6 points each. The greater the CPF, the better the protection against corrosion.
# [4] = Humidity test ASTM D 4585-87, 330 hours, of acrylic dispersion coating (Maincote HG-54) with corrosion inhibitor; corrosion protection factor CPF; settings: humidity test 330 hours, coat thickness 45 to 50 μm; for CPF film / CPF metal: maximum 6 points, greater = better; for CPF: sum of film and metal, maximum 12 points
# Protocol: as §4, §5
# […] Drying conditions: 10 days at room temperature.
# as §2, §6
# [5] = 1% inhibitor on overall solids content
# [6] = 2% inhibitor on overall solids content
structure (smiles),measurement,setting,value
"CCCCCCCCCCCCCCN(CP(=O)(O)O)CP(=O)(O)O.CCN1CCOCC1.CCN1CCOCC1 [Example 6, n-Tetradecylaminobismethylenephosphonic Acid, Salt with Two Equivalents of N-ethylmorpholine]",Cathodic delamination (mm total),[1]; 1% inhibitor,18 mm
same,Wet adhesion (Gt value),[2]; 1% inhibitor,0 Gt
same,Wet adhesion (Gt value),[2]; 2% inhibitor,0 Gt
same,CPF film,[3]; [5],5.4
same,CPF metal,[3]; [5],5.0
same,CPF,[3]; 1% inhibitor,10.2
same,CPF film,[4]; [5],4.6
same,CPF metal,[4]; [5],5.0
same,CPF,[4]; 1% inhibitor,9.6
same,CPF film,[4]; [6],5.2
same,CPF metal,[4]; [6],4.5
same,CPF,[4]; 2% inhibitor,9.7
"CCCCCCN(CCCCCC)CP(=O)(O)O.CCN1CCOCC1.CCN1CCOCC1 [Example 2, Dihexylaminomethylenephosphonic Acid, Salt with Two Equivalents of N-ethylmorpholine]",Cathodic delamination (mm total),[1]; 1% inhibitor,14 mm
same,Wet adhesion (Gt value),[2]; 1% inhibitor,0 Gt
same,CPF film,[3]; [5],4.2
same,CPF metal,[3]; [5],5.2
same,CPF,[3]; 1% inhibitor,9.4
same,CPF film,[4]; [5],4.0
same,CPF metal,[4]; [5],4.0
same,CPF,[4]; 1% inhibitor,8.0
"CCCCCCCCCCCCCCCCN(CP(=O)(O)O)CP(=O)(O)O.CCN1CCOCC1.CCN1CCOCC1 [Example 5, n-Hexadecylaminobismethylenephosphonic Acid, Salt with Two Equivalents of N-ethylmorpholine]",Cathodic delamination (mm total),[1]; 1% inhibitor,26 mm
same,Wet adhesion (Gt value),[2]; 1% inhibitor,0 Gt
same,CPF film,[3]; [5],5.2
same,CPF metal,[3]; [5],5.0
same,CPF,[3]; 1% inhibitor,10.2
same,CPF film,[4]; [5],4.2
same,CPF metal,[4]; [5],5.0
same,CPF,[4]; 1% inhibitor,9.2
"CCCCCCCCCCN(CP(=O)(O)O)CP(=O)(O)O.CCN1CCOCC1.CCN1CCOCC1 [Example 8, n-Decylaminobismethylenephosphonic Acid, Salt with Two Equivalents of N-ethylmorpholine]",Cathodic delamination (mm total),[1]; 1% inhibitor,12 mm
same,Cathodic delamination (mm total),[1]; 2% inhibitor,10 mm
same,Wet adhesion (Gt value),[2]; 1% inhibitor,0-1 Gt
same,CPF film,[3]; [5],5.2
same,CPF metal,[3]; [5],5.4
same,CPF,[3]; 1% inhibitor,10.6
same,CPF film,[3]; [6],5.2
same,CPF metal,[3]; [6],5.2
same,CPF,[3]; 2% inhibitor,10.4
same,CPF film,[4]; [5],5.2
same,CPF metal,[4]; [5],4.7
same,CPF,[4]; 1% inhibitor,9.9
"CCCCCCCCN(CCCCCCCC)CP(=O)(O)O.CCN1CCOCC1.CCN1CCOCC1 [Example 3, Dioctylaminomethylenephosphonic Acid, Salt with Two Equivalents of N-ethylmorpholine]",Cathodic delamination (mm total),[1]; 1% inhibitor,16 mm
same,CPF film,[3]; [5],4.0
same,CPF metal,[3]; [5],4.0
same,CPF,[3]; 1% inhibitor,8.0
"CCCCCCCCCCCCN(CP(=O)(O)O)CP(=O)(O)O.OCCN(CCO)CCO.OCCN(CCO)CCO [Example 16, n-Dodecylaminobismethylenephosphonic Acid, Salt with Two Equivalents of Triethanolamine]",Cathodic delamination (mm total),[1]; 1% inhibitor,16 mm
same,Wet adhesion (Gt value),[2]; 2% inhibitor,0 Gt
same,CPF film,[3]; [5],4.8
same,CPF metal,[3]; [5],4.4
same,CPF,[3]; 1% inhibitor,9.2
same,CPF film,[4]; [6],4.8
same,CPF metal,[4]; [6],3.6
same,CPF,[4]; 2% inhibitor,8.4
"CCCCCCCCCCCCN(CP(=O)(O)O)CP(=O)(O)O.CCN1CCOCC1.CCN1CCOCC1 [Example 7, n-Dodecylaminobismethylenephosphonic Acid, Salt with Two Equivalents of N-ethylmorpholine]",Cathodic delamination (mm total),[1]; 1% inhibitor,16 mm
same,Wet adhesion (Gt value),[2]; 1% inhibitor,0 Gt
same,Wet adhesion (Gt value),[2]; 2% inhibitor,0 Gt
same,CPF film,[3]; [5],5.4
same,CPF metal,[3]; [5],5.6
same,CPF,[3]; 1% inhibitor,11.0
same,CPF film,[4]; [5],5.2
same,CPF metal,[4]; [5],3.0
same,CPF,[4]; 1% inhibitor,8.2
same,CPF film,[4]; [6],6.0
same,CPF metal,[4]; [6],4.5
same,CPF,[4]; 2% inhibitor,10.5
"CCCCC(CC)CN(CP(=O)(O)O)CP(=O)(O)O.CCN1CCOCC1.CCN1CCOCC1 (stereo not drawn) [Example 4, 2-Ethylhexylaminobismethylenephosphonic Acid, Salt with Two Equivalents N-ethylmorpholine]",Cathodic delamination (mm total),[1]; 1% inhibitor,22 mm
same,Wet adhesion (Gt value),[2]; 1% inhibitor,0 Gt
same,Wet adhesion (Gt value),[2]; 2% inhibitor,0 Gt
same,CPF film,[3]; [5],5.0
same,CPF metal,[3]; [5],5.0
same,CPF,[3]; 1% inhibitor,10.0
same,CPF film,[4]; [5],4.0
same,CPF metal,[4]; [5],2.6
same,CPF,[4]; 1% inhibitor,6.6
same,CPF film,[4]; [6],5.0
same,CPF metal,[4]; [6],4.8
same,CPF,[4]; 2% inhibitor,9.8
"CCCCCCN(CP(=O)(O)O)CP(=O)(O)O.CCN1CCOCC1.CCN1CCOCC1 [Example 10, n-Hexylaminobismethylenephosphonic Acid, Salt with Two Equivalents of N-ethylmorpholine]",Cathodic delamination (mm total),[1]; 1% inhibitor,24 mm
same,Wet adhesion (Gt value),[2]; 1% inhibitor,0 Gt
same,Wet adhesion (Gt value),[2]; 2% inhibitor,0 Gt
same,CPF film,[3]; [5],4.6
same,CPF metal,[3]; [5],5.4
same,CPF,[3]; 1% inhibitor,10.0
same,CPF film,[4]; [5],4.0
same,CPF metal,[4]; [5],3.8
same,CPF,[4]; 1% inhibitor,7.8
same,CPF film,[4]; [6],4.4
same,CPF metal,[4]; [6],6.0
same,CPF,[4]; 2% inhibitor,10.4
"CCCCCCCCCCCCCCCCCCN(CP(=O)(O)O)CP(=O)(O)O.CCN1CCOCC1.CCN1CCOCC1 [Example 1, n-Octadecylaminobismethylenephosphonic Acid, Salt with Two Equivalents of N-ethylmorpholine]",Cathodic delamination (mm total),[1]; 1% inhibitor,28 mm
same,Cathodic delamination (mm total),[1]; 2% inhibitor,30 mm
same,Wet adhesion (Gt value),[2]; 1% inhibitor,0 Gt
same,Wet adhesion (Gt value),[2]; 2% inhibitor,0 Gt
same,CPF film,[3]; [5],6.0
same,CPF metal,[3]; [5],5.0
same,CPF,[3]; 1% inhibitor,11.0
same,CPF film,[3]; [6],6.0
same,CPF metal,[3]; [6],5.2
same,CPF,[3]; 2% inhibitor,11.2
same,CPF film,[4]; [5],4.0
same,CPF metal,[4]; [5],4.0
same,CPF,[4]; 1% inhibitor,8.0
same,CPF film,[4]; [6],5.0
same,CPF metal,[4]; [6],4.0
same,CPF,[4]; 2% inhibitor,9.0
"CCCCCCCCCCN(CP(=O)(O)O)CP(=O)(O)O.OCCN(CCO)CCO.OCCN(CCO)CCO [Example 17, n-Decylaminobismethylenephosphonic Acid, Salt with Two Equivalents of Triethanolamine]",Cathodic delamination (mm total),[1]; 1% inhibitor,16 mm
same,CPF film,[3]; [5],5.4
same,CPF metal,[3]; [5],5.5
same,CPF,[3]; 1% inhibitor,10.9
"CCCCCCCCN(CP(=O)(O)O)CP(=O)(O)O.CCN1CCOCC1.CCN1CCOCC1 [Example 9, n-Octylaminobismethylenephosphonic Acid, Salt with Two Equivalents of N-ethylmorpholine]",Cathodic delamination (mm total),[1]; 1% inhibitor,12 mm
same,Wet adhesion (Gt value),[2]; 1% inhibitor,0 Gt
same,Wet adhesion (Gt value),[2]; 2% inhibitor,0 Gt
same,CPF film,[3]; [5],5.6
same,CPF metal,[3]; [5],5.4
same,CPF,[3]; 1% inhibitor,11.0
same,CPF film,[4]; [5],4.4
same,CPF metal,[4]; [5],4.0
same,CPF,[4]; 1% inhibitor,8.4
same,CPF film,[4]; [6],4.8
same,CPF metal,[4]; [6],5.4
same,CPF,[4]; 2% inhibitor,10.2

# Source: patent US6403826B1, “Corrosion-inhibiting coating composition for metals” (Ciba Specialty Chemicals Corporation, priority 1996, dated 2002)
